Experimental data reported in patent publication US20190167694A1, “NEW THERAPEUTICS USES” (NOVARTIS AG, priority 2016, published 2019).

Columns and labels:
[1] = tested on: TEC-family kinases (ITK, TEC, and TXK); assay: Cellular IL-2 production assay in Jurkat cells (CD3/CD28 stimulation, ELISA); format: cell-based; conditions: Homo sapiens, read-out: IC50, IL2-Production
Method: The cellular IL-2 Production assay was carried out using Jurkat cells.

Human CD4 T cell = Human CD4 T cell proliferation assay (Cell Titer Glo); format: cell-based; conditions: 96 h, anti-CD3/anti-CD28 beads, 4 days
Method: In the Human CD4 T cell assay, primary human CD4+ T cells isolated from a leukopak were cultured in the presence of anti-CD^3/anti-CD28 beads to stimulate T cell proliferation.

TEC = target: T1, TEC (Homo sapiens, UniProt P42680); assay: Biochemical TEC assay (Caliper LabChip)
T1 sequence (P42680 1-631): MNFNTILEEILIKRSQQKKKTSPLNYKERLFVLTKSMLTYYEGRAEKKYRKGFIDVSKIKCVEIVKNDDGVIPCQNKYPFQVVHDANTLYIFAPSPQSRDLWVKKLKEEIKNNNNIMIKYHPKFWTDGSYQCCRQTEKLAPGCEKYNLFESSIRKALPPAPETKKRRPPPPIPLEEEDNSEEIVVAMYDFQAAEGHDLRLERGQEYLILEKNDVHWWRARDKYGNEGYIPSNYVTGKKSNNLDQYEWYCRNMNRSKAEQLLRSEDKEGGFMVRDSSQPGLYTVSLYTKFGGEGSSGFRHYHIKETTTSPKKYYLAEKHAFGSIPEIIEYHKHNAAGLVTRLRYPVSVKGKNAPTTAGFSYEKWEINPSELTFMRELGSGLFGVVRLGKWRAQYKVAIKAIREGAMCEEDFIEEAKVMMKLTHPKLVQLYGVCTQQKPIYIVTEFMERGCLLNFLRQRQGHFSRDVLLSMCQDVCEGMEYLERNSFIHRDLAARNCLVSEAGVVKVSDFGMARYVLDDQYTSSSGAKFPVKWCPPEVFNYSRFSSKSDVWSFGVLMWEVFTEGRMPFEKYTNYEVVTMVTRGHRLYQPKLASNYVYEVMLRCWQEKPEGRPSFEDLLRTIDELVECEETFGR

TXK = target: T2, TXK (Homo sapiens, UniProt P42681); assay: Biochemical TXK assay (Caliper LabChip)
T2 sequence (P42681 1-527): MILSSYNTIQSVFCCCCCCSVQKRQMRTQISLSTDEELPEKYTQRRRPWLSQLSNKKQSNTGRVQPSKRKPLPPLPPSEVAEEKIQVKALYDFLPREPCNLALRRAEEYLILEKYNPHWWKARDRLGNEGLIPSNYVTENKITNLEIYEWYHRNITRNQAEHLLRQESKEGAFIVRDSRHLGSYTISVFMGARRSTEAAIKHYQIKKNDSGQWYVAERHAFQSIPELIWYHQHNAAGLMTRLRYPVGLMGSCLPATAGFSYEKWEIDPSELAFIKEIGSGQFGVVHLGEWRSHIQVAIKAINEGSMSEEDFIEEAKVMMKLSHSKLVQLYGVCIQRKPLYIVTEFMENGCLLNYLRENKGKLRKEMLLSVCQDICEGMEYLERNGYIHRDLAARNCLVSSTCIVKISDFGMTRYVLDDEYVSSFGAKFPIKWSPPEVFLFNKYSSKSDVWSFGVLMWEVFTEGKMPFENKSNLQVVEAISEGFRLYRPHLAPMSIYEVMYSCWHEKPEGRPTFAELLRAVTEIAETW
Method: The biochemical assays for ITK, TEC and TXK were carried out using Caliper Life Sciences' proprietary LabChip™ technology. This technology uses a microfluidic chip to measure the conversion of a fluorescent peptide substrate to a phosphorylated product. The product conversions were determined in the presence of various compound concentrations and IC50 values were calculated.

[2] = tested on: anti-KLH IgM and anti-KLH IgG antibodies; assay: T-cell dependent antibody response (TDAR) assay in rats, KLH immunization; format: in vivo, rat; conditions: for anti-KLH IgG, mean percent difference compared to vehicle controls / anti-KLH IgM, mean percent difference compared to vehicle controls: 30 mg/kg/day oral
Method: T-cells play critical roles in immune regulation. T-cell Tec family kinases are important players in T-cell function, which in turn can modulate immune function. COMPOUND A was tested in a T-cell dependent antibody response (TDAR) assay, a frequently used functional assessment of the immune system. […] On study days 11 and 25 for the main study animals and days 28 and 42 for the recovery group, animals received 300 μg of KLH (Keyhole Limpet Hemocyanin) antigen. Samples for serology assessment of anti-KLH IgM and anti-KLH IgG antibodies (study days 19, 21, 23, 25 and 36 prior to dosing from the main study animals; recovery days 42 and 53 prior to KLH injection from the recovery animals) were collected. Immunomodulatory responses in COMPOUND A-treated animals following KLH immunization were noted when values were compared to concurrent vehicle controls. […] The decreases were also observed in mean anti-KLH IgM values on study days 21, 23, 25 (primary response, time course) and day 36 (post boosting) for female rats. For anti-KLH IgG antibodies, decreases in mean concentration were apparent on study days 19, 21, 23 and 25 for both male and female rats. On study day 36, decreases in mean concentration were detected in female rats. Recovery following withdrawal of COMPOUND A treatment was noted. The COMPOUND A-related decrease of anti-KLH antibody production in both male and female rats was reversible. This included both primary response-anti-KLH IgM, and isotype switch measured by secondary anti-KLH IgG production as indicated by values that were similar to concurrent controls at the recovery sampling time points (recovery day 42 and 53).

Mouse B cell = assay: cells; conditions: 72 h, read-out: IC50, Mouse B cell proliferation
Method: Cells were incubated at 37° C. in the presence of various concentrations of compound. After 3 days, cell viability was measured using Cell Titer Glo.

BTK (TMD-8) = assay: cells; conditions: Homo sapiens, TMD8, 72 h, read-out: IC50, BTK (TMD-8) proliferation
Method: After 3 days, cell viability was measured using Cell Titer Glo.

[3] = female rats, study day 36 (post boosting)

## Cc1cc(C(=O)Nc2nc3cccc(Cl)c3n2[C@@H]2CCCCN(C(=O)/C=C/CN(C)C)C2)ccn1 [COMPOUND A, (R,E)-N-(7-chloro-1-(1-(4-(dimethylamino)but-2-enoyl)azepan-3-yl)-1H-benzo[d]imidazol-2-yl)-2-methylisonicotinamide]
[1]
  IC50: 21 nM
Human CD4 T cell
  IC50: 140 nM
TEC
  IC50, TEC biochemical: single digit nM potency
TXK
  IC50, TXK biochemical: single digit nM potency
[2]; female rats, study day 19
  anti-KLH IgG, mean percent difference compared to vehicle controls: −96%
  anti-KLH IgM, mean percent difference compared to vehicle controls: −88%
[2]; female rats, study day 21
  anti-KLH IgG, mean percent difference compared to vehicle controls: −98%
  anti-KLH IgM, mean percent difference compared to vehicle controls: −75%
[2]; female rats, study day 23
  anti-KLH IgG, mean percent difference compared to vehicle controls: −97%
  anti-KLH IgM, mean percent difference compared to vehicle controls: −71%
[2]; female rats, study day 25
  anti-KLH IgG, mean percent difference compared to vehicle controls: −96%
  anti-KLH IgM, mean percent difference compared to vehicle controls: −63%
[2]; [3]
  anti-KLH IgG, mean percent difference compared to vehicle controls: −69%
  anti-KLH IgM, mean percent difference compared to vehicle controls: −67%
[2]; male and female rats, 30 mg/kg/day, recovery days 42 and 53
  reversibility of decrease of anti-KLH antibody production after withdrawal of treatment: reversible
[2]; male rats, study day 19
  anti-KLH IgG, mean percent difference compared to vehicle controls: −78%
  anti-KLH IgM, mean percent difference compared to vehicle controls: −67%
[2]; male rats, study day 21
  anti-KLH IgG, mean percent difference compared to vehicle controls: −84%
[2]; male rats, study day 23
  anti-KLH IgG, mean percent difference compared to vehicle controls: −80%
[2]; male rats, study day 25
  anti-KLH IgG, mean percent difference compared to vehicle controls: −83%
Mouse B cell
  IC50: 295 nM
BTK (TMD-8)
  IC50: 224 nM

## C=CC(=O)N1CCC[C@@H](n2nc(-c3ccc(Oc4ccccc4)cc3)c3c(N)ncnc32)C1 [Ibrutinib, ibrutinib, reference compound]
[1]
  IC50: 284 nM
